Source: PubChem BioAssay AID493130 (Broad Institute, 2011)
Results filed as inconclusive are left out. Active and inactive are the calls of the source.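 The calls were made as follows: active = signal-lowering compounds whose fitted half-maximal concentration is at most ten times their highest tested dose; inconclusive = flat fit between -30 and -70%, or poor fit; inactive = flat within 30%, signal rising, or potency beyond limit.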

Each compound was assayed against POS-1 (Caenorhabditis elegans) binding to mex-3 RNA (assay: inhibitors of POS-1/mex-3 RNA binding, dose response, counter-screen for MEX-5 RNA-binding inhibitor project, biochemical, fluorescence polarization, cherry-picked samples, set 2 (AID 493130;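 also: POS-1 as maltose binding protein fusion made in E. coli with FITC RNA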)). Settings: POS-1/mex-3 RNA fluorescence polarization, 1 h.

Compound	AC50
Cn1c(=O)c2[nH]c(-c3ccccc3)c(O)c2n(C)c1=O	2270 nM
CN(C)c1ccc2nc3c(=O)[nH]c(=O)nc-3n(CC(O)C(O)C(O)CO)c2c1 (stereo not drawn)	9630 nM
NS(=O)(=O)c1ccc(N=Nc2c(=O)[nH]n3c(=O)c4c([nH]c23)CCCC4)cc1	251 nM
CCNC(=S)N/N=C/c1sc(N2CCCCC2)nc1-c1cccs1	4680 nM
COc1ccc(/C(O)=C/c2nc3ccccc3n(-c3ccccc3)c2=O)cc1	3230 nM
CCCCCCc1cc2cc(C(=O)NC)c(=N)oc2cc1O	1620 nM
O=C1CCNc2ccc(-c3ccccc3)cc21	1340 nM
Nc1ccc2nc3c(=O)n(CCc4ccccc4)c(=O)[nH]c3nc2c1	1220 nM
O=c1[nH]c(-[n+]2ccccc2)c(/C=N/NC([S-])=Nc2ccccc2)s1	5900 nM

Same assay, conditions: POS-1/mex-3 RNA fluorescence polarization, 1 h; at 10 µM (top of the series)

Compound	activity change, negative = inhibition
CCCCCC(=O)N(Cc1ccccc1)c1c(N)n(CCOC)c(=O)[nH]c1=O	inactive
COCCN1CCC(CNCc2cn(-c3cc(C)ccc3C)nc2-c2ccccc2)C1 (stereo not drawn)	inactive
COC(=O)c1cccc2nc3c(C(C)O)cccc3nc12 (stereo not drawn)	inactive
COc1ccc(/C=C2\C(=O)NC(=S)N2C(=O)c2ccc(C)cc2)cc1	inactive
Cc1c(Br)c(=O)oc2c(Br)c(O)c(O)cc12	inactive
N#C/C(C(N)=O)=C1/CCc2ccccc2N1	inactive
Cc1cc(/C=C2\C(=O)NC(=O)N(c3cccc(F)c3)C2=O)c(C)n1-c1cc(C(=O)O)cc(C(=O)O)c1	inactive
CC1=CC2=NC(=O)/C(=C\c3ccc(-c4cccc(Cl)c4)o3)C(=N)N2O1	inactive
O=c1cc(-c2ccccc2Cl)oc2c(NS(=O)(=O)c3ccccc3OC(F)(F)F)ccc(O)c12	inactive
Cc1csc(NC(=O)c2ccc(-c3ccc(Cl)cc3Cl)o2)n1	inactive
COc1ccc(CCn2c(=N)c(C(=O)NCC3CCCO3)cc3c(=O)n4ccccc4nc32)cc1 (stereo not drawn)	inactive
CCOC(=O)C1CCN(c2nc3ccccc3nc2C(C#N)C(=O)OC(C)C)CC1 (stereo not drawn)	inactive
CN1C(=O)N(C)C(c2cccc([N+](=O)[O-])c2)C2=C1CCCC2=O (stereo not drawn)	inactive
CNC(=O)/C(C#N)=C/c1ccc(-c2ccc(Cl)cc2)o1	inactive
O=C(N/N=C/c1ccncc1)c1cc([N+](=O)[O-])cc([N+](=O)[O-])c1O	inactive
CN1CCCc2cc(C=O)ccc21	inactive
Cc1cccc(/C=N/NC(=O)Cn2nnnc2N)n1	inactive
CC(C)c1ccc(N2C(=O)/C(=C/N(C)C)SC2=S)cc1	inactive
COc1cc2c(cc1N/C=C(\C#N)c1nc(-c3ccc(F)cc3)cs1)oc1ccccc12	inactive
COc1ccc(OC)c(-n2c(-c3cc(-c4ccco4)[nH]n3)n[nH]c2=S)c1	inactive
COc1cc(C(=O)NC(=S)NNC(=O)c2cnccn2)cc(OC)c1OC	inactive

Compound	activity change, negative = inhibition
CN1C(=O)NC(c2ccccc2Cl)C2=C1CC(C)(C)CC2=O (stereo not drawn)	inactive
COc1c(OC2OC(C(=O)O)C(O)C(O)C2O)cc(O)c2c(=O)cc(-c3ccccc3)oc12 (stereo not drawn)	inactive
Cc1ccc(/C=C2/NC(=O)N(Cc3ccccc3)C2=O)s1	inactive
O=C(NNC(=O)c1ccccc1[N+](=O)[O-])c1ccco1	inactive
Cc1ccc2oc(=O)c(/C=C(\O)c3ccco3)nc2c1	inactive
COc1ccccc1NCc1cc(=O)oc2c(C)c(O)ccc12	inactive
CSc1ccc(/C=C/C(=O)c2ccc(NC(C)=O)cc2)cc1	inactive
CCCCNc1c(N)n(CCCC)c(=O)[nH]c1=O	inactive
CCCCN(CCCC)CCNC(=O)CNC(=O)c1cccs1	inactive
Cc1cc2c(C)nc(N/N=C/c3ccc([N+](=O)[O-])cc3)nc2o1	inactive
CN1C(=O)/C(=C/c2ccco2)SC1=Nc1cccc(C(=O)O)c1	inactive
O=C1c2cccc3c(Cl)ccc(c23)C(=O)N1O	inactive
O=C(O)CCCN1C(=O)/C(=C\c2ccc(-c3nc4ccccc4s3)o2)SC1=S	inactive
Oc1cccc(NC(=S)N=Nc2c(O)[nH]c3ccc(Br)cc23)c1	inactive
Cc1cccc(NC(=O)CN2C(=O)S/C(=C\c3ccc(-c4cccc(C(=O)O)c4C)o3)C2=O)c1	inactive
CC1=C/C(=C(/c2cc(C)c(O)c(Br)c2)c2ccccc2S(=O)(=O)O)C=C(Br)C1=O	inactive
O=C(N/N=C/c1c(O)ccc2ccccc12)c1ccc[n+](CCO)c1	inactive
O=c1cc(-c2ccccc2)oc2ccc(O)cc12	inactive
COCCNc1nnc(SCC(=O)NNC(=O)c2ccc([N+](=O)[O-])cc2)s1	inactive
O=c1[nH]c(=S)n(-c2ccc(Cl)cc2)c(O)c1C=Nc1ccc(N2CCOCC2)cc1	inactive
O=C(O)c1cc(-c2ccc(/C=c3\sc4nc5ccc(Br)cc5n4c3=O)o2)ccc1Cl	inactive

Compound	activity change, negative = inhibition
O=C(N/N=C/c1c(O)n(Cc2ccco2)c(=O)[nH]c1=O)c1ccccc1	inactive
CN(C)C(=O)Oc1ccc2c(c1)O/C(=C\c1ccccc1)C2=O	inactive
N=c1c(S(=O)(=O)c2ccc(Cl)cc2)cc2c(=O)n3ccccc3nc2n1CC1CCCO1 (stereo not drawn)	inactive
Cc1cc(C)c2ccc(=S)[nH]c2n1	inactive
O=C(NNC(=S)NC(=O)c1ccccc1[N+](=O)[O-])c1ccccc1[N+](=O)[O-]	inactive
COc1ccc(CC(=O)NNc2ncnc3c2cnn3C)cc1OC	inactive
Cc1ccc(O)c(N=CC2=C(O)c3ccccc3C2=O)c1	inactive
CNC(=O)c1c(NC(=O)c2ccc(S(=O)(=O)N(C)c3ccccc3)cc2)sc2c1CCN(C(C)C)C2	inactive
CC(C)N1CCc2c(sc(NC(=O)c3ccc(S(=O)(=O)N4CCCCC4C)cc3)c2C(N)=O)C1 (stereo not drawn)	inactive
COc1cccc(OCC(=O)NNC(=O)c2cnccn2)c1	inactive
O=c1[nH]c(=O)n(Cc2ccccc2)c(O)c1/C=C1\C=Nc2ccccc21	inactive
Cn1c(=O)c2c(nc(NN=C3CCCCC3)n2C)n(C)c1=O	inactive
CC(C#N)(Nc1ccc(Cl)cc1)c1cccnc1 (stereo not drawn)	inactive
N#CCCn1c2ccccc2c2nc3ccccc3nc21	inactive
CCCCC1=CC2=C(c3ccco3)C(=O)C(C)(OC(=O)c3ccc(OC)cc3)C(=O)C2=CN1C(CO)CO (stereo not drawn)	inactive
O=C(O)CCC(=O)NNc1ncnc2ccccc12	inactive
CCOC(=O)c1ccc(N=Nc2c(C)c(C#N)c(O)[nH]c2=O)cc1	inactive
CC1=CC(=C2C(=O)NC(=S)NC2=O)C=C(C(F)(F)F)N1Cc1ccccc1	inactive
CC1=C(C(=O)OCc2ccccc2)C(c2cccc([N+](=O)[O-])c2)NC(=O)N1C (stereo not drawn)	inactive
Cc1cccc(C(=O)NNc2ncnc3c2cnn3C)c1	inactive
Cc1ccc(NC(=O)CCC(=O)NNC(=S)Nc2ccccc2)c(C)c1	inactive

Compound	activity change, negative = inhibition
COC(=O)C1=C(C)N(c2ccc(C)c(C)c2)/C(=C/c2cccs2)C1=O	inactive
COc1cc(/C=N/NC(=S)Nc2cccc(C(=O)O)c2)ccc1O	inactive
O=C(O)CCCC(=O)NNc1nc(-c2ccccc2)c2cc(Cl)ccc2n1	inactive
Cc1cc(=O)oc(C)c1C(=O)Nc1c(C)n(C)n(-c2ccccc2)c1=O	inactive
CCOC(=O)CC1=C(C(=O)OCC)C(c2ccc(OC)c(OC)c2)C(C#N)=C(N)O1 (stereo not drawn)	inactive
Cc1c(C#N)c(O)[nH]c(=O)c1N=Nc1ccc(S(N)(=O)=O)cc1	inactive
O=c1nc(-c2ccccc2)c2cc(Br)ccc2[nH]1	inactive
CNC(=O)c1c(NC(=O)c2nc3ccccc3s2)sc2c1CCC2	inactive
CCN(CC)c1ccc(/C=N/N2CCN(c3ccccc3OC)CC2)cc1	inactive
O=C(O)c1ccc(/C=C2\SC(=S)N(Nc3ccccc3)C2=O)cc1	inactive
Cc1ccc([C@@H]2C3COCC=C3C(C#N)=C(N)C2(C#N)C#N)o1 (stereo partly drawn)	inactive
O=C1SC(SCc2ccccc2Cl)=N/C1=C\c1ccc(C(=O)O)cc1	inactive
Oc1ccc(/C=N/Nc2ncnc3nc[nH]c23)cc1	inactive
O=C(O)CSc1ncnc2nc[nH]c12	inactive
O=C(O)c1ccccc1N=Nc1c(O)[nH]c2ccc([N+](=O)[O-])cc12	inactive
CN(C)CC(O)COc1ccc(C(C)(C)c2ccc(OCC(O)CN(C)C)cc2)cc1 (stereo not drawn)	inactive
CSc1nc(N)c(N=Nc2ccc([As](=O)(O)O)cc2)c(=O)[nH]1	inactive
N#C/C(=C\c1cccc([N+](=O)[O-])c1)c1nnc2n1CCCCC2	inactive
Cn1nc(C(=O)NNC(=O)c2ccc(Cl)cc2)ccc1=O	inactive
CN1/C(=C\C=C(/C#N)C(=O)Nc2ccccc2F)C(C)(C)c2ccccc21	inactive
Cc1c(C#N)c(O)n(CCO)c(=O)c1N=Nc1ccccc1	inactive
